≈ marks a conversion by molar mass, not a printed value.
Legend:
Salmonella typhimurium = test: Control of infections caused by Salmonella typhimurium in chickens, subcutaneous (Experiment 2); assay type: in vivo; conditions: Salmonella enterica, sc, 144 h, 6 days, read-out: Survival Ratio (converted)
Procedure: The efficacy of the novel compounds in the control of infections caused by Salmonella typhimurium in chickens was evaluated in the following manner.
The test was carried out using day-old chicks weighing approximately 35 g. each. The chicks were divided into groups of 5 chicks per each dosage level. A portion of the chicks received the test compound which was suspended in 0.2 ml. of polyethylene glycol 200 and administered subcutanusly in the neck. […] All the chicks were challenged with a 1:200 dilution of a culture of the organism, 0.1 ml. of the dilution being injected into each chick in the leg intramuscularly. […] The test compounds are identified in the same manner as set forth in Experiment 1.
In the chart, column 1 lists the compounds tested; column 2, the dosage of test compound in mg./kg.; and column 3, the survival ratio.

[1] = system: Eubacterium aerofaciens 1235; test: Susceptibility of anaerobic bacteria, agar dilution; assay type: cell-based; conditions: Collinsella aerofaciens, 24 h; Eubacterium aerofaciens 1235; read-out: 24 Hr. Minimum Inhibitory Concentration
[2] = system: Clostridium innocuum 1373; test: as above; assay type: cell-based; conditions: 24 h; Clostridium innocuum 1373; read-out: 24 Hr. Minimum Inhibitory Concentration
[3] = system: Clostridium perfringens 81; test: microbe, parasite or virus in culture; assay type: cell-based; conditions: Clostridium perfringens, 81, 24 h, read-out: 24 Hr. Minimum Inhibitory Concentration
Actinomyces bovis 13684 = test: Susceptibility of anaerobic bacteria, agar dilution; assay type: cell-based; conditions: 24 h; Actinomyces bovis 13684; read-out: 24 Hr. Minimum Inhibitory Concentration
[4] = system: Peptococcus anaerobius 1428; test: as above; assay type: cell-based; conditions: 24 h; Peptococcus anaerobius 1428; read-out: 24 Hr. Minimum Inhibitory Concentration
[5] = system: Bacteroides fragilis sp. vulgatus 1563; test: as above; assay type: cell-based; conditions: 24 h; Bacteroides fragilis sp. vulgatus 1563; read-out: 24 Hr. Minimum Inhibitory Concentration
[6] = system: Clostridium septicum bovine; test: as above; assay type: cell-based; conditions: 24 h, read-out: 24 Hr. Minimum Inhibitory Concentration
[7] = system: Clostridium septicum 1128; test: as above; assay type: cell-based; conditions: 24 h, read-out: 24 Hr. Minimum Inhibitory Concentration
Clostridium ramosum 1313 = test: as above; assay type: cell-based; conditions: Thomasclavelia ramosa, 24 h; Clostridium ramosum 1313; read-out: 24 Hr. Minimum Inhibitory Concentration
[8] = system: Peptostreptococcus intermedius 1264; test: as above; assay type: cell-based; conditions: 24 h; Peptostreptococcus intermedius 1264; read-out: 24 Hr. Minimum Inhibitory Concentration
[9] = system: Fusobacterium symbiosum 1470; test: as above; assay type: cell-based; conditions: 24 h; Fusobacterium symbiosum 1470; read-out: 24 Hr. Minimum Inhibitory Concentration
[10] = system: Propionibacterium acnes 79; test: as above; assay type: cell-based; conditions: Cutibacterium acnes, 24 h; Propionibacterium acnes 79; read-out: 24 Hr. Minimum Inhibitory Concentration
[11] = system: Propionibacterium acnes 44; test: as above; assay type: cell-based; conditions: Cutibacterium acnes, 24 h; Propionibacterium acnes 44; read-out: 24 Hr. Minimum Inhibitory Concentration
[12] = system: Bacteroides fragilis sp. vulgatus 1211; test: as above; assay type: cell-based; conditions: 24 h; Bacteroides fragilis sp. vulgatus 1211; read-out: 24 Hr. Minimum Inhibitory Concentration
[13] = system: Bacteroides fragilis sp. thetaiotaomicron 1438; test: as above; assay type: cell-based; conditions: 24 h; Bacteroides fragilis sp. thetaiotaomicron 1438; read-out: 24 Hr. Minimum Inhibitory Concentration
[14] = system: Bacteroides fragilis sp. fragilis 1877; test: as above; assay type: cell-based; conditions: 24 h; Bacteroides fragilis sp. fragilis 1877; read-out: 24 Hr. Minimum Inhibitory Concentration
[15] = system: Bacteroides fragilis sp. fragilis 1936B; test: as above; assay type: cell-based; conditions: 24 h; Bacteroides fragilis sp. fragilis 1936B; read-out: 24 Hr. Minimum Inhibitory Concentration
[16] = system: Veillonella alcalescens 1; test: as above; assay type: cell-based; conditions: Veillonella parvula, 24 h; Veillonella alcalescens 1; read-out: 24 Hr. Minimum Inhibitory Concentration
[17] = system: Fusobacterium necrophorum 13859; test: as above; assay type: cell-based; conditions: 24 h; Fusobacterium necrophorum 13859; read-out: 24 Hr. Minimum Inhibitory Concentration

CC(=O)Nc1c(C#N)c(-c2ncc([N+](=O)[O-])n2C)nn1C [Compound 8, N-[4-cyano-1-methyl-3-(1-methyl-5-nitro-2-imidazolyl)pyrazol-5-yl]acetamide]
responders at 15 mg/kg (Salmonella typhimurium; 15 mg./kg. subcutaneous): 0% | responders at 30 mg/kg (Salmonella typhimurium; 30 mg./kg. subcutaneous): 20% | responders at 60 mg/kg (Salmonella typhimurium; 60 mg./kg. subcutaneous): 60% | MIC [1]: 0.125 µg/mL (≈ 0.432 µM) | MIC [2]: 1 µg/mL (≈ 3.46 µM) | MIC [3]: 1 µg/mL (≈ 3.46 µM) | MIC (Actinomyces bovis 13684): 4 µg/mL (≈ 13.8 µM) | MIC [4]: 1 µg/mL (≈ 3.46 µM) | MIC [5]: 0.25 µg/mL (≈ 0.864 µM) | MIC [6]: 1 µg/mL (≈ 3.46 µM) | MIC [7]: 0.25 µg/mL (≈ 0.864 µM) | MIC (Clostridium ramosum 1313): 0.25 µg/mL (≈ 0.864 µM) | MIC [8]: 4 µg/mL (≈ 13.8 µM) | MIC [9]: 0.03 µg/mL (≈ 0.104 µM) | MIC [10]: 0.03 µg/mL (≈ 0.104 µM) | MIC [11]: > 8 µg/mL | MIC [12]: 0.25 µg/mL (≈ 0.864 µM) | MIC [13]: 0.5 µg/mL (≈ 1.73 µM) | MIC [14]: 0.25 µg/mL (≈ 0.864 µM) | MIC [15]: 0.25 µg/mL (≈ 0.864 µM) | MIC [16]: 0.03 µg/mL (≈ 0.104 µM) | MIC [17]: 0.06 µg/mL (≈ 0.207 µM)
